Reference: patent US8076487B2, “Pyridone derivative and herbicide” (Kumiai Chemical Industry Co., Ltd., priority 2006, dated 2011)

Assays:
Format in all cases: in vivo
[1] = system: early watergrass (Echinochloa oryzicola Vasing); assay: Test Example 1: herbicidal effect by soil application to paddy field; conditions: for herbicidal effect, Echinochloa oryzicola Vasing: paddy field soil application, active ingredient 1,000 g per 1 hectare, wettable powder added dropwise to water surface the day after sowing, examined on the 21st day after application; for herbicidal effect (index), Echinochloa oryzicola Vasing: soil application to paddy field, rated by standard of Table 34
In short: (§1)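 Plants were sown in flooded (3 cm) paddy soil and evaluated for herbicidal effect 21 days after soil application in a greenhouse.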

[2] = system: Japanese bulrush (Scirpus juncoides Roxb.); assay: as above; conditions: for herbicidal effect, Scirpus juncoides Roxb.: paddy field soil application, active ingredient 1,000 g per 1 hectare, wettable powder added dropwise to water surface the day after sowing, examined on the 21st day after application; for herbicidal effect (index), Scirpus juncoides Roxb.: soil application to paddy field, rated by standard of Table 34
In short: as §1

[3] = system: heartshape false pickerelweed (Monochoria vaginalis (Burm.f.) C.Presl); assay: as above; conditions: for herbicidal effect, Monochoria vaginalis (Burm. f.) C. Presl: paddy field soil application, active ingredient 1,000 g per 1 hectare, wettable powder added dropwise to water surface the day after sowing, examined on the 21st day after application; for herbicidal effect (index), Monochoria vaginalis (Burm.f.) C.Presl: soil application to paddy field, rated by standard of Table 34
In short: as §1

[4] = system: slender amaranth (Amaranthus viridis L.); assay: Test Example 3: herbicidal effect by application to upland field (foliage treatment); conditions: 14th day after application; for herbicidal effect (index), Slender Amaranth: foliage treatment, plants grown two weeks, 1,000 g active ingredient per hectare; for herbicidal effect, Slender Amaranth: foliage treatment, 1,000 g active ingredient per 1 hectare, greenhouse
Method: (§2) [table] Test Example 3 Test on Herbicidal Effect by Application to Upland Field In a 80 cm2 plastic pot, field soil was filled. Seeds of barnyardgrass (Echinochloa crus-galli (L.) P. Beauv. var. crus-galli), green foxtail (Setaria viridis (L.) P. Beauv.), velvetleaf (Abutilon theophrasti medicus), and slender amaranth (Amaranthus viridis L.) were sown and allowed to grow for two weeks in a greenhouse. Thereafter, the wettable powder prepared according to Formulation Example 1 was diluted in water and a 1,000 liter equivalent amount per 1 hectare so that the active ingredient becomes 1,000 g per 1 hectare was sprayed using a small sprayer from a top of the plants through its entire body for foliage treatment. Then, on the 14th day after the application to the plants grew in a greenhouse, the herbicidal effect was examined in accordance with a standard shown in Table 34.

[5] = system: green foxtail (Setaria viridis (L.) P. Beauv.); assay: as above; conditions: 14th day after application; for herbicidal effect (index), Green Foxtail: foliage treatment, plants grown two weeks, 1,000 g active ingredient per hectare; for herbicidal effect, Green Foxtail: foliage treatment, 1,000 g active ingredient per 1 hectare, greenhouse
Method: as §2

[6] = system: velvetleaf (Abutilon theophrasti medicus); assay: as above; conditions: 14th day after application; for herbicidal effect (index), Velvetleaf: foliage treatment, plants grown two weeks, 1,000 g active ingredient per hectare; for herbicidal effect, Velvetleaf: foliage treatment, 1,000 g active ingredient per 1 hectare, greenhouse
Method: as §2

[7] = system: barnyardgrass (Echinochloa crus-galli (L.) P. Beauv. var. crus-galli); assay: as above; conditions: 14th day after application; for herbicidal effect (index), Barnyardgrass: foliage treatment, plants grown two weeks, 1,000 g active ingredient per hectare; for herbicidal effect, Barnyardgrass: foliage treatment, 1,000 g active ingredient per 1 hectare, greenhouse
Method: as §2

CCn1c(C(F)(F)F)ccc(C(=O)C2=C(O)CCCC2=O)c1=O [I-2]
herbicidal effect, Echinochloa oryzicola Vasing [1]: 5 (90% or more of herbicidal effect and crop phytotoxicity)
herbicidal effect, Scirpus juncoides Roxb. [2]: 5 (90% or more of herbicidal effect and crop phytotoxicity)
herbicidal effect, Monochoria vaginalis (Burm. f.) C. Presl [3]: 5 (90% or more of herbicidal effect and crop phytotoxicity)
herbicidal effect (index), Slender Amaranth [4]: 5 (90% or more of herbicidal effect and crop phytotoxicity)
herbicidal effect (index), Green Foxtail [5]: 5 (90% or more of herbicidal effect and crop phytotoxicity)
herbicidal effect (index), Velvetleaf [6]: 5 (90% or more of herbicidal effect and crop phytotoxicity)
herbicidal effect (index), Barnyardgrass [7]: 5 (90% or more of herbicidal effect and crop phytotoxicity)

C=C(C)Cn1c(C(F)(F)F)ccc(C(=O)C2=C(O)CCCC2=O)c1=O [I-12]
herbicidal effect, Echinochloa oryzicola Vasing [1]: 5 (90% or more of herbicidal effect and crop phytotoxicity)
herbicidal effect, Scirpus juncoides Roxb. [2]: 5 (90% or more of herbicidal effect and crop phytotoxicity)
herbicidal effect, Monochoria vaginalis (Burm. f.) C. Presl [3]: 5 (90% or more of herbicidal effect and crop phytotoxicity)
herbicidal effect (index), Slender Amaranth [4]: 5 (90% or more of herbicidal effect and crop phytotoxicity)
herbicidal effect (index), Green Foxtail [5]: 5 (90% or more of herbicidal effect and crop phytotoxicity)
herbicidal effect (index), Velvetleaf [6]: 5 (90% or more of herbicidal effect and crop phytotoxicity)
herbicidal effect (index), Barnyardgrass [7]: 5 (90% or more of herbicidal effect and crop phytotoxicity)

CC(C)=CCCn1c(C(F)(F)F)ccc(C(=O)C2=C(O)CCCC2=O)c1=O [I-13]
herbicidal effect, Echinochloa oryzicola Vasing [1]: 5 (90% or more of herbicidal effect and crop phytotoxicity)
herbicidal effect, Scirpus juncoides Roxb. [2]: 5 (90% or more of herbicidal effect and crop phytotoxicity)
herbicidal effect, Monochoria vaginalis (Burm. f.) C. Presl [3]: 5 (90% or more of herbicidal effect and crop phytotoxicity)
herbicidal effect (index), Slender Amaranth [4]: 5 (90% or more of herbicidal effect and crop phytotoxicity)
herbicidal effect (index), Green Foxtail [5]: 5 (90% or more of herbicidal effect and crop phytotoxicity)
herbicidal effect (index), Velvetleaf [6]: 5 (90% or more of herbicidal effect and crop phytotoxicity)
herbicidal effect (index), Barnyardgrass [7]: 5 (90% or more of herbicidal effect and crop phytotoxicity)

C#CCn1c(C(F)(F)F)ccc(C(=O)C2=C(O)CCCC2=O)c1=O [I-14]
herbicidal effect, Echinochloa oryzicola Vasing [1]: 5 (90% or more of herbicidal effect and crop phytotoxicity)
herbicidal effect, Scirpus juncoides Roxb. [2]: 5 (90% or more of herbicidal effect and crop phytotoxicity)
herbicidal effect, Monochoria vaginalis (Burm. f.) C. Presl [3]: 5 (90% or more of herbicidal effect and crop phytotoxicity)
herbicidal effect (index), Slender Amaranth [4]: 5 (90% or more of herbicidal effect and crop phytotoxicity)
herbicidal effect (index), Green Foxtail [5]: 5 (90% or more of herbicidal effect and crop phytotoxicity)
herbicidal effect (index), Velvetleaf [6]: 5 (90% or more of herbicidal effect and crop phytotoxicity)
herbicidal effect (index), Barnyardgrass [7]: 5 (90% or more of herbicidal effect and crop phytotoxicity)

CCCS(=O)(=O)Cc1c(Br)cc(C(=O)C2=C(O)CCCC2=O)c(=O)n1-c1ccccc1 [I-237]
herbicidal effect, Slender Amaranth [4]: 5 (90% or more of herbicidal effect and crop phytotoxicity)
herbicidal effect, Green Foxtail [5]: 4 (70 to less than 90% of herbicidal effect and crop phytotoxicity)
herbicidal effect, Velvetleaf [6]: 5 (90% or more of herbicidal effect and crop phytotoxicity)
herbicidal effect, Barnyardgrass [7]: 5 (90% or more of herbicidal effect and crop phytotoxicity)

CCSCn1c(C(F)(F)F)ccc(C(=O)C2=C(O)C3CCC(C3)C2=O)c1=O (stereo not shown) [III-26]
herbicidal effect, Slender Amaranth [4]: 5 (90% or more of herbicidal effect and crop phytotoxicity)
herbicidal effect, Green Foxtail [5]: 5 (90% or more of herbicidal effect and crop phytotoxicity)
herbicidal effect, Velvetleaf [6]: 5 (90% or more of herbicidal effect and crop phytotoxicity)
herbicidal effect, Barnyardgrass [7]: 5 (90% or more of herbicidal effect and crop phytotoxicity)

CC[S+]([O-])Cn1c(C(F)(F)F)ccc(C(=O)C2=C(O)C3CCC(C3)C2=O)c1=O (stereo not shown) [III-27]
herbicidal effect, Slender Amaranth [4]: 5 (90% or more of herbicidal effect and crop phytotoxicity)
herbicidal effect, Green Foxtail [5]: 5 (90% or more of herbicidal effect and crop phytotoxicity)
herbicidal effect, Velvetleaf [6]: 5 (90% or more of herbicidal effect and crop phytotoxicity)
herbicidal effect, Barnyardgrass [7]: 5 (90% or more of herbicidal effect and crop phytotoxicity)

CCn1ncc(C(=O)c2ccc(C(F)(F)F)n(CC3CCCO3)c2=O)c1OC(=O)c1c(Cl)cc(Cl)cc1Cl (stereo not shown) [IV-206]
herbicidal effect, Echinochloa oryzicola Vasing [1]: 5 (90% or more of herbicidal effect and crop phytotoxicity)
herbicidal effect, Scirpus juncoides Roxb. [2]: 5 (90% or more of herbicidal effect and crop phytotoxicity)
herbicidal effect, Monochoria vaginalis (Burm. f.) C. Presl [3]: 5 (90% or more of herbicidal effect and crop phytotoxicity)

CCCn1ncc(C(=O)c2ccc(C(F)(F)F)n(C)c2=O)c1O [IV-213]
herbicidal effect, Echinochloa oryzicola Vasing [1]: 5 (90% or more of herbicidal effect and crop phytotoxicity)
herbicidal effect, Scirpus juncoides Roxb. [2]: 5 (90% or more of herbicidal effect and crop phytotoxicity)
herbicidal effect, Monochoria vaginalis (Burm. f.) C. Presl [3]: 5 (90% or more of herbicidal effect and crop phytotoxicity)

C=CCn1ncc(C(=O)c2ccc(C(F)(F)F)n(C)c2=O)c1O [IV-225]
herbicidal effect, Echinochloa oryzicola Vasing [1]: 5 (90% or more of herbicidal effect and crop phytotoxicity)
herbicidal effect, Scirpus juncoides Roxb. [2]: 5 (90% or more of herbicidal effect and crop phytotoxicity)
herbicidal effect, Monochoria vaginalis (Burm. f.) C. Presl [3]: 5 (90% or more of herbicidal effect and crop phytotoxicity)

C=CCn1ncc(C(=O)c2ccc(C(F)(F)F)n(C)c2=O)c1OCc1ccccc1 [IV-228]
herbicidal effect, Echinochloa oryzicola Vasing [1]: 5 (90% or more of herbicidal effect and crop phytotoxicity)
herbicidal effect, Scirpus juncoides Roxb. [2]: 5 (90% or more of herbicidal effect and crop phytotoxicity)
herbicidal effect, Monochoria vaginalis (Burm. f.) C. Presl [3]: 5 (90% or more of herbicidal effect and crop phytotoxicity)

Cc1ccc(S(=O)(=O)Oc2c(C(=O)c3ccc(C(F)(F)F)n(C)c3=O)c(C)nn2C)cc1 [IV-236]
herbicidal effect, Echinochloa oryzicola Vasing [1]: 5 (90% or more of herbicidal effect and crop phytotoxicity)
herbicidal effect, Scirpus juncoides Roxb. [2]: 5 (90% or more of herbicidal effect and crop phytotoxicity)
herbicidal effect, Monochoria vaginalis (Burm. f.) C. Presl [3]: 5 (90% or more of herbicidal effect and crop phytotoxicity)

Cc1nn(C)c(O)c1C(=O)c1ccc(C(F)(F)F)n(CC2CCCO2)c1=O (stereo not shown) [IV-238]
herbicidal effect, Echinochloa oryzicola Vasing [1]: 4 (70 to less than 90% of herbicidal effect and crop phytotoxicity)
herbicidal effect, Scirpus juncoides Roxb. [2]: 5 (90% or more of herbicidal effect and crop phytotoxicity)
herbicidal effect, Monochoria vaginalis (Burm. f.) C. Presl [3]: 5 (90% or more of herbicidal effect and crop phytotoxicity)

CCCS(=O)(=O)Oc1c(C(=O)c2ccc(C(F)(F)F)n(CC3CCCO3)c2=O)c(C)nn1C (stereo not shown) [IV-239]
herbicidal effect, Echinochloa oryzicola Vasing [1]: 5 (90% or more of herbicidal effect and crop phytotoxicity)
herbicidal effect, Scirpus juncoides Roxb. [2]: 5 (90% or more of herbicidal effect and crop phytotoxicity)
herbicidal effect, Monochoria vaginalis (Burm. f.) C. Presl [3]: 5 (90% or more of herbicidal effect and crop phytotoxicity)

Cc1ccc(S(=O)(=O)Oc2c(C(=O)c3ccc(C(F)(F)F)n(CC4CCCO4)c3=O)c(C)nn2C)cc1 (stereo not shown) [IV-240]
herbicidal effect, Echinochloa oryzicola Vasing [1]: 5 (90% or more of herbicidal effect and crop phytotoxicity)
herbicidal effect, Scirpus juncoides Roxb. [2]: 5 (90% or more of herbicidal effect and crop phytotoxicity)
herbicidal effect, Monochoria vaginalis (Burm. f.) C. Presl [3]: 5 (90% or more of herbicidal effect and crop phytotoxicity)

CCCS(=O)(=O)Oc1c(C(=O)c2ccc(Cl)n(C)c2=O)cnn1C [IV-242]
herbicidal effect, Echinochloa oryzicola Vasing [1]: 5 (90% or more of herbicidal effect and crop phytotoxicity)
herbicidal effect, Scirpus juncoides Roxb. [2]: 5 (90% or more of herbicidal effect and crop phytotoxicity)
herbicidal effect, Monochoria vaginalis (Burm. f.) C. Presl [3]: 4 (70 to less than 90% of herbicidal effect and crop phytotoxicity)

Cn1c(C(F)(F)F)ccc(C(=O)C(C#N)C(=O)C2CC2)c1=O (stereo not shown) [V-9, 2-cyano-3-cyclopropyl-1-[1,2-dihydro-1-methyl-2-oxo-6-(trifluoromethyl)pyridin-3-yl]propane-1,3-dione]
herbicidal effect (index), Echinochloa oryzicola Vasing [1]: 5 (90% or more of herbicidal effect and crop phytotoxicity)
herbicidal effect (index), Scirpus juncoides Roxb. [2]: 5 (90% or more of herbicidal effect and crop phytotoxicity)
herbicidal effect (index), Monochoria vaginalis (Burm.f.) C.Presl [3]: 5 (90% or more of herbicidal effect and crop phytotoxicity)

CCCn1c(C(F)(F)F)c(C)cc(C(=O)C(C#N)=C(O)C2CC2)c1=O [V-24]
herbicidal effect (index), Echinochloa oryzicola Vasing [1]: 5 (90% or more of herbicidal effect and crop phytotoxicity)
herbicidal effect (index), Scirpus juncoides Roxb. [2]: 5 (90% or more of herbicidal effect and crop phytotoxicity)
herbicidal effect (index), Monochoria vaginalis (Burm.f.) C.Presl [3]: 5 (90% or more of herbicidal effect and crop phytotoxicity)

N#CC(C(=O)c1ccc(C(F)(F)F)n(CC2CCCO2)c1=O)=C(O)C1CC1 (stereo not shown) [V-26]
herbicidal effect (index), Echinochloa oryzicola Vasing [1]: 5 (90% or more of herbicidal effect and crop phytotoxicity)
herbicidal effect (index), Scirpus juncoides Roxb. [2]: 4 (70 to less than 90% of herbicidal effect and crop phytotoxicity)
herbicidal effect (index), Monochoria vaginalis (Burm.f.) C.Presl [3]: 5 (90% or more of herbicidal effect and crop phytotoxicity)
